{
  "source": "paper PMC7040082",
  "about": "(Journal of Pharmacokinetics and Pharmacodynamics, 2019)",
  "key": {"[1]": {"conditions": "cited from earlier work; for urinary metformin recovery: human, at 60 to 72 h"}, "[2]": {"conditions": "for β (PD scale parameter, first arrival time of drug): constrained to 25-30 s; for AUC for CGPC(t) as percent of dose eliminated, 72h-∞: late-time 72 h to ∞ (drug mass remaining at 72 h); for AUC for CGPC(t) as percent of dose eliminated, 1/3-72h: sample-times 20 min to 72 h"}, "[3]": {"conditions": "all samples 20 min to 72 h; ref [1]; cited from earlier work"}, "[4]": {"assay": "Noncompartmental (NC) analysis of IV bolus serum concentrations in dogs"}, "in vivo": {"assay": "in vivo", "conditions": "both, mixed-breed, dog, serum, iv, mean of seven dogs"}, "[5]": {"conditions": "dog, in vivo; cited from earlier work"}, "[6]": {"conditions": "in vivo; cited from earlier work"}, "[7]": {"conditions": "GPC fit, single IV bolus, individual dogs (Dog 1-7)"}, "[8]": {"conditions": "GPC fit, single IV bolus, mean of seven dogs"}},
  "note": "Where “and” joins values, the source holds several entries; their conditions need not be identical. Equal values may be shown once. Read-outs that look alike come from different tables or passages of the source.",
  "data": [
    {"smiles": "CN(C)C(=N)N=C(N)N", "note": "[metformin, 1,1-dimethylbiguanide]", "values": [
      {"measurement": "urine recovery from IV metformin", "setting": "[1]; 48 h, may have been inflated, ref Pentikäinen et al. [21]", "value": 99.9, "unit": "%"},
      {"measurement": "urinary metformin recovery", "setting": "[1]; ref Table 1 of [19]", "value": 86, "unit": "%"},
      {"measurement": "urinary metformin recovery", "setting": "[1]; ref Table II of [20]", "value": 78.9, "unit": "%"},
      {"measurement": "AUC for CGPC(t) as percent of dose eliminated, 0-72h", "setting": "[2]; 0 to 72 h (model renal excreted), mean of seven dogs", "value": 78.9, "unit": "%"},
      {"measurement": "AUC for CGPC(t) as percent of dose eliminated, 0-72h", "setting": "[2]; 0 to 72 h, individual dogs 1-7", "value": "91.3% and 71.6% and 84.4% and 79.7% and 67.0% and 82.6% and 75.9%"},
      {"measurement": "β (PD scale parameter, first arrival time of drug)", "setting": "[2]; GPC fit, individual dogs (Dog 1-7)", "value": "30 s and 25 s"},
      {"measurement": "β (PD scale parameter, first arrival time of drug)", "setting": "[2]; GPC fit, mean of seven dogs", "value": 26, "unit": "s"},
      {"measurement": "CL", "setting": "[2]; [7]", "value": "11.4 ml/minkg and 14.7 ml/minkg and 9.8 ml/minkg and 11.5 ml/minkg and 26.7 ml/minkg and 19.4 ml/minkg and 12.4 ml/minkg"},
      {"measurement": "Peak (time at the maximum of the GPC model)", "setting": "[2]; [7]", "value": "1.34 min and 4.85 min and 0.66 min and 6.17 min and 2.21 min and 1.70 min"},
      {"measurement": "a (GD shape parameter)", "setting": "[2]; [7]", "value": "0.5194 and 0.7629 and 0.3493 and 0.8112 and 0.6689 and 0.6092 and 0.6435"},
      {"measurement": "b (GD rate parameter)", "setting": "[2]; [7]", "value": "0.6137 per h and 1.0518 per h and 0.7318 per h and 0.9993 per h and 0.9107 per h and 0.8062 per h and 1.1035 per h"},
      {"measurement": "α (PD shape parameter)", "setting": "[2]; [7]", "value": "0.1929 and 0.1571 and 0.2644 and 0.1365 and 0.2010 and 0.1726 and 0.1199"},
      {"measurement": "Peak (time at the maximum of the GPC model)", "setting": "[2]; [8]", "value": 2.73, "unit": "min"},
      {"measurement": "a (GD shape parameter)", "setting": "[2]; [8]", "value": 0.6235},
      {"measurement": "b (GD rate parameter)", "setting": "[2]; [8]", "value": 0.8882, "unit": "per h"},
      {"measurement": "α (PD shape parameter)", "setting": "[2]; [8]", "value": 0.1778},
      {"measurement": "CL as percent of estimated total renal plasma flow (RPF)", "setting": "[2]; GPC model mean CL, RPF≈17.86 mlmin^-1kg^-1 from PAH meta-analysis", "value": 84.8, "unit": "%"},
      {"measurement": "CL GPC", "setting": "[2]; GPC model, individual dogs 1-7", "value": "14.7 mlmin^-1kg^-1 and 9.8 mlmin^-1kg^-1 and 11.5 mlmin^-1kg^-1 and 26.7 mlmin^-1kg^-1 and 19.4 mlmin^-1kg^-1 and 12.4 mlmin^-1kg^-1 and 11.4 mlmin^-1kg^-1"},
      {"measurement": "early concentration peak, total elapsed time", "setting": "[2]; GPC models, range of seven dogs", "value": "0.66 to 6.17", "unit": "min"},
      {"measurement": "CL as percent of RPF using geometric means", "setting": "[2]; GPC, GM EPAH of 35 controls", "value": 84.7, "unit": "%"},
      {"measurement": "decrease of drug mass in the body from the initial dose", "setting": "[2]; at 72 h, […] remaining", "value": 5, "unit": "fold"},
      {"measurement": "AUC for CGPC(t) as percent of dose eliminated, 72h-∞", "setting": "[2]; individual dogs 1-7", "value": "8.7% and 28.4% and 15.6% and 20.3% and 33.0% and 17.4% and 24.1%"},
      {"measurement": "AUC for CGPC(t) as percent of dose eliminated, 72h-∞", "setting": "[2]; mean of seven dogs", "value": 21.1, "unit": "%"},
      {"measurement": "decrease of serum concentration from estimated peak concentration", "setting": "[2]; over 72 h", "value": 1000, "unit": "fold"},
      {"measurement": "AUC for CGPC(t) as percent of dose eliminated, 1/3-72h", "setting": "[2]; individual dogs 1-7", "value": "53.1% and 58.7% and 63.7% and 60.5% and 50.8% and 62.0%"},
      {"measurement": "AUC for CGPC(t) as percent of dose eliminated, 1/3-72h", "setting": "[2]; mean of seven dogs", "value": 58.5, "unit": "%"},
      {"measurement": "range of serum sample concentrations", "setting": "[3]", "value": "9.78 to 19,100 ng/ml"},
      {"measurement": "CL as percent of expected RPF", "setting": "[4]; NC mean CL, RPF≈17.86 mlmin^-1kg^-1", "value": 104.7, "unit": "%"},
      {"measurement": "NC CL-value greater than GPC CL-value", "setting": "[4]; dog 6", "value": 25, "unit": "%"},
      {"measurement": "AUC", "setting": "E2 fit, single IV bolus, mean of seven dogs", "value": 15.8, "unit": "mgh/L"},
      {"measurement": "p1 (fraction of AUC from first exponential term)", "setting": "E2 fit, mean of seven dogs", "value": 79.3, "unit": "%"},
      {"measurement": "p2 (fraction of AUC from second exponential term)", "setting": "E2 fit, mean of seven dogs", "value": 20.7, "unit": "%"},
      {"measurement": "λ1", "setting": "E2 fit, mean of seven dogs", "value": 0.721, "unit": "h⁻¹"},
      {"measurement": "λ2", "setting": "E2 fit, mean of seven dogs", "value": 0.0490, "unit": "h⁻¹"},
      {"measurement": "CL as percent of expected RPF", "setting": "E2 mean CL, RPF≈17.86 mlmin^-1kg^-1", "value": 123.7, "unit": "%"},
      {"measurement": "CL E2", "setting": "biexponential model, mean of seven dogs", "value": 22.1, "unit": "mlmin^-1kg^-1"},
      {"measurement": "E2 CL-value greater than GPC CL-value", "setting": "dog 6", "value": 41, "unit": "%"},
      {"measurement": "AUC", "setting": "in vivo; AUC, GPC fit, single IV bolus", "value": 23600, "unit": "ng·h/mL"},
      {"measurement": "clearance", "setting": "in vivo; CL GPC, GPC model", "value": 15.1, "unit": "mL/min/kg"},
      {"measurement": "clearance", "setting": "in vivo; CL, GPC fit, single IV bolus", "value": 15.1, "unit": "mL/min/kg"}
    ]},
    {"smiles": "Nc1ccc(C(=O)NCC(=O)O)cc1", "note": "[PAH, p-aminohippurate]", "values": [
      {"measurement": "CLPAH renal clearance", "setting": "[5]", "value": 13.51, "unit": "mlmin^-1kg^-1"},
      {"measurement": "EPAH arteriovenous extraction ratio", "setting": "[5]", "value": 0.7564},
      {"measurement": "nominal canine EPAH", "setting": "[5]", "value": 75.6, "unit": "%"},
      {"measurement": "EPAH in humans", "setting": "[6]", "value": "circa 90%"}
    ]}
  ]
}
